From EP1247803A2, “Indolinone compounds suitable for modulation of protein kinases” (Sugen, Inc., priority 1996, dated 1998)

These compounds were tested against T1, FLK-1 receptor (Mus musculus, UniProt P35918) (assay: FLK-1 ELISA (kinase activity of the FLK-1 receptor in FLK-1/NIH3T3 cells, VEGF stimulated)).
T1 construct: expressed in transfected cells; host or cells: NIH3T3 C7#3
Type: cell-based
Design: concentration or dose not given beside the values
In short: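 An ELISA using affinity-purified rabbit anti-FLK-1 antiserum on anti-rabbit IgG-coated plates measured VEGF-stimulated FLK-1 kinase activity. NIH3T3 C7#3 cells carrying FLK-1 were serum-starved (0.1% FBS) overnight, then exposed to compound (final 1:200 dilution, 0.5% DMSO) for two hours at 37 °C.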

T1 sequence (P35918 20-1345): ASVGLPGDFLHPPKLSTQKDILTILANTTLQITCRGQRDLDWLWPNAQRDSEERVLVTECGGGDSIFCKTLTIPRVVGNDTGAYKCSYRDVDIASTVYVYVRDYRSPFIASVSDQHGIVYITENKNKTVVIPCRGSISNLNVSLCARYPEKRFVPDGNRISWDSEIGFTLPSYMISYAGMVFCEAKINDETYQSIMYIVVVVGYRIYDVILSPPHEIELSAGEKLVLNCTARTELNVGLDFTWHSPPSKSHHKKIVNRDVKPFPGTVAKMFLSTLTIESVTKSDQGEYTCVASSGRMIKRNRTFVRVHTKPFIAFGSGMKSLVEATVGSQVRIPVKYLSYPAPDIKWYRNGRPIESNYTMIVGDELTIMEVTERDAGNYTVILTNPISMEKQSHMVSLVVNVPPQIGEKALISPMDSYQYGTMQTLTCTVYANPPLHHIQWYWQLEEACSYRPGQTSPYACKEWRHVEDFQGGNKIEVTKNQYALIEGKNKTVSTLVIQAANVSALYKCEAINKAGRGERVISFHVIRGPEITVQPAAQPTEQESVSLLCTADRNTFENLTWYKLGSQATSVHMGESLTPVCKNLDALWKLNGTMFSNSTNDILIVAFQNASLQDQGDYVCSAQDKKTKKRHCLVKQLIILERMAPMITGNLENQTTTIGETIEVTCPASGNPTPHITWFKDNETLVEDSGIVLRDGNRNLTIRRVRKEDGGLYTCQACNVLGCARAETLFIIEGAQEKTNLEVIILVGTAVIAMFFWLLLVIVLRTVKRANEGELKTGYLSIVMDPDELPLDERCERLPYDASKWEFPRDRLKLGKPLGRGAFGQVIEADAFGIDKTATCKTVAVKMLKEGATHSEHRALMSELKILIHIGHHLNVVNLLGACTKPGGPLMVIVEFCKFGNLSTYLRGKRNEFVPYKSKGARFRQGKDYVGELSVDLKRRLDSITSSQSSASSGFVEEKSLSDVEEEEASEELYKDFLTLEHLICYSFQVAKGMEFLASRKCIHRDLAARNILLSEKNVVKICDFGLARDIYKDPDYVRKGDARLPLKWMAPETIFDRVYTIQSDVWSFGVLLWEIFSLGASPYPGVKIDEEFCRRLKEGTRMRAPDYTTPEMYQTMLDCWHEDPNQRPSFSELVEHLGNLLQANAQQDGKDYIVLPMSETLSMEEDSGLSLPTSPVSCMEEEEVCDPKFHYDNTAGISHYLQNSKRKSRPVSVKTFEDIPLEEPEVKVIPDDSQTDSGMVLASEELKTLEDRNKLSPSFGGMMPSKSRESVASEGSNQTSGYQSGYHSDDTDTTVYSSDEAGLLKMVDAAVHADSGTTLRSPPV

Compared with `CC(C)c1cc(C=C2C(=O)Nc3ccc(CCCl)cc32)cc(C(C)C)c1O` [10724/G06], `CCc1ccc(C=C2C(=O)Nc3ccc(CCCl)cc32)o1` [10724/G10] is higher in “Fik Kinase %Inhibition” value: 0.1% for the first, 7.0% for the second.

Going from `O=C1Nc2ccc(CCCl)cc2C1=Cc1cc2ccccc2o1` [10724/G07] to `O=C1Nc2ccc(CCCl)cc2C1=Cc1cccn1-c1ccc(Cl)cc1` [10724/G09], the “Fik Kinase %Inhibition” value rises from -1.9% to 9.1%.

Compared with `Cc1csc2sc(C=C3C(=O)Nc4ccc(CCCl)cc43)c(C)c12` [10724/G11], `O=C1Nc2ccc(I)cc2C1=Cc1sccc1Br` [10725/B02] is lower in “Fik Kinase %Inhibition” value: 6.8% for the first, -2.8% for the second.

Compared with `O=C1Nc2c(Br)cc(Br)cc2C1=Cc1sccc1Br` [10725/A02], `COc1ccc(Br)c(C=C2C(=O)Nc3c(Br)cc(Br)cc32)c1O` [10725/A03] is higher in “Fik Kinase %Inhibition” value: -2.0% for the first, 3.6% for the second.

First: Cc1cc(C=C2C(=O)Nc3c(Br)cc(Br)cc32)[nH]n1 [10725/A05]
Second: Cc1cc(C=C2C(=O)Nc3ccc(I)cc32)[nH]n1 [10725/B05]
The “Fik Kinase %Inhibition” value of the first is higher: -13.9% for the first, -61.0% for the second.

Compared with `COc1cc(C)cc(O)c1C=C1C(=O)Nc2c(Br)cc(Br)cc21` [10725/A06], `COc1cc(C)cc(O)c1C=C1C(=O)Nc2ccc(I)cc21` [10725/B06] is higher in “Fik Kinase %Inhibition” value: -7.3% for the first, -0.5% for the second.

Going from `O=CN1CCN(c2ccc(C=C3C(=O)Nc4c(Br)cc(Br)cc43)cc2)CC1` [10725/A07] to `O=C1Nc2c(Br)cc(Br)cc2C1=Cc1ccc(N2CCOCC2)cc1` [10725/A08], the “Fik Kinase %Inhibition” value rises from -12.3% to -2.9%.

Compared with `COC(=O)Cc1c(Cl)[nH]c(C=C2C(=O)Nc3c(Br)cc(Br)c(C)c32)c1C(=O)OC` [10725/A09], `COC(=O)Cc1c(Cl)[nH]c(C=C2C(=O)Nc3ccc(I)cc32)c1C(=O)OC` [10725/B09] is higher in “Fik Kinase %Inhibition” value: -13.9% for the first, 0.4% for the second.

Going from `Cc1c(Br)cc(Br)c2c1C(=Cc1c(Br)cnn1-c1ccc(Cl)cc1)C(=O)N2` [10725/A10] to `O=C1Nc2ccc(I)cc2C1=Cc1c(Br)cnn1-c1ccc(Cl)cc1` [10725/B10], the “Fik Kinase %Inhibition” value rises from -3.2% to 5.1%.

Going from `Cc1c(Br)cc(Br)c2c1C(=Cc1c[nH]cn1)C(=O)N2` [10725/A11] to `O=C1Nc2ccc(I)cc2C1=Cc1c[nH]cn1` [10725/B11], the “Fik Kinase %Inhibition” value falls from -21.9% to -42.3%.

Compared with `COc1ccc(Br)c(C=C2C(=O)Nc3ccc(I)cc32)c1O` [10725/B03], `O=C1Nc2ccc(I)cc2C1=Cc1ccc(N2CCOCC2)cc1` [10725/B08] is lower in “Fik Kinase %Inhibition” value: 4.9% for the first, -24.1% for the second.

With `O=CN1CCN(c2ccc(C=C3C(=O)Nc4ccc(I)cc43)cc2)CC1` [10725/B07] the “Fik Kinase %Inhibition” value was 24.6%.
